# Tested on: NLRP3
# Test: IL-1β secretion assay in PMA-differentiated, LPS/nigericin-stimulated THP-1 cells (384-well, ELISA read-out)
# Format: cell-based, human
# Conditions: Homo sapiens, THP-1
# Summary of the method: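 THP-1 cells differentiated with PMA (5 ng/mL, 40 h), primed in serum-free medium with 25 ng/mL LPS for 2 h, treated with compounds 1 h (0.5% DMSO), then stimulated with nigericin for 2 h at 37 °C. Supernatant IL-1β measured by ELISA; responses normalized to LPS+5 μM nigericin and LPS-only controls.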
row,SMILES,IC50
1,"O=C(CN1CC2(CC2)c2cc(Br)ccc2C1=O)NC1CN2CCC1CC2 (stereo not drawn) [Example 372, N-(1-azabicyclo[2.2.2]octan-3-yl)-2-(6-bromo-1-oxospiro[3H-isoquinoline-4,1′-cyclopropane]-2-yl)acetamide]",22.2 µM

# Same assay, conditions: Homo sapiens, THP-1, Table 4; IL-1β secretion, LPS/nigericin-stimulated THP-1 cells; read-out: IC50
row,SMILES,IC50
1,O=C(CN1CC2(CC2)c2cc(Br)ccc2C1=O)Nc1nccn2ccnc12 [Example 351],4.23 µM
2,"O=C(CN1CC2(CC2)c2cc(Br)ccc2C1=O)Nc1nnc2ccccc2n1 [Example 352, N-(1,2,4-benzotriazin-3-yl)-2-(6-bromo-1-oxospiro[3H-isoquinoline-4,1′-cyclopropane]-2-yl)acetamide]",6.08 µM
3,"CC1(C)CN=C(NC(=O)CN2CC3(CC3)c3cc(Br)ccc3C2=O)O1 [Example 353, 2-(6-bromo-1-oxospiro[3H-isoquinoline-4,1′-cyclopropane]-2-yl)-N-(5,5-dimethyl-4H-1,3-oxazol-2-yl)acetamide]",5.42 µM
4,"O=C(CN1CC2(CC2)c2cc(C(F)(F)F)cc(Cl)c2C1=O)Nc1ncc(F)cn1 [Example 354, 2-[8-chloro-1-oxo-6-(trifluoromethyl)spiro[3H-isoquinoline-4,1′-cyclopropane]-2-yl]-N-(5-fluoropyrimidin-2-yl)acetamide]",24 µM
5,"O=C(CN1CC2(CC2)c2cc(Br)ccc2C1=O)N[C@@H]1CCN(Cc2ccccc2)C1 [Example 355, N-[(3R)-1-benzylpyrrolidin-3-yl]-2-(6-bromo-1-oxospiro[3H-isoquinoline-4,1′-cyclopropane]-2-yl)acetamide]",5.02 µM
6,"N#Cc1cccc2oc(NC(=O)CN3CC4(CC4)c4cc(Br)ccc4C3=O)nc12 [Example 356, 2-(6-bromo-1-oxospiro[3H-isoquinoline-4,1′-cyclopropane]-2-yl)-N-(4-cyano-1,3-benzoxazol-2-yl)acetamide]",2.3 µM
7,"O=C(CN1CC2(CC2)c2cc(Br)ccc2C1=O)NC1CC(OCc2ccccc2)C1 (stereo not drawn) [Example 357, 2-(6-bromo-1-oxospiro[3H-isoquinoline-4,1′-cyclopropane]-2-yl)-N-(3-trans-phenylmethoxycyclobutyl)acetamide]",5.21 µM
8,"O=C(CN1CC2(CC2)c2cc(Br)ccc2C1=O)Nc1nc2cc(C(F)(F)F)ccc2o1 [Example 358, 2-(6-bromo-1-oxospiro[3H-isoquinoline-4,1′-cyclopropane]-2-yl)-N-[5-(trifluoromethyl)-1,3-benzoxazol-2-yl]acetamide]",1.29 µM
9,"O=C(CN1CC2(CC2)c2cc(Br)ccc2C1=O)Nc1ncc(C2CCCO2)cn1 (stereo not drawn) [Example 359, 2-(6-bromo-1-oxospiro[3H-isoquinoline-4,1′-cyclopropane]-2-yl)-N-[5-(oxolan-2-yl)pyrimidin-2-yl]acetamide]",0.603 µM
10,"CN1CCC[C@@H](NC(=O)CN2CC3(CC3)c3cc(Br)ccc3C2=O)C1 [Example 360, 2-(6-bromo-1-oxospiro[3H-isoquinoline-4,1′-cyclopropane]-2-yl)-N-[(3R)-1-methylpiperidin-3-yl]acetamide]",3.46 µM
11,"O=C(CN1CC2(CC2)c2cc(Br)ccc2C1=O)Nc1nc2ccc(C(F)(F)F)cc2o1 [Example 361, 2-(6-bromo-1-oxospiro[3H-isoquinoline-4,1′-cyclopropane]-2-yl)-N-[6-(trifluoromethyl)-1,3-benzoxazol-2-yl]acetamide]",0.849 µM
12,"O=C(CN1CC2(CC2)c2cc(Br)ccc2C1=O)Nc1cc2n(n1)CCOC2 [Example 362, 2-(6-bromo-1-oxospiro[3H-isoquinoline-4,1′-cyclopropane]-2-yl)-N-(6,7-dihydro-4H-pyrazolo[5,1-c][1,4]oxazin-2-yl)acetamide]",1.45 µM
13,"O=C(CN1CC2(CC2)c2cc(Br)ccc2C1=O)Nc1nccc2nccn12 [Example 363, 2-(6-bromo-1-oxospiro[3H-isoquinoline-4,1′-cyclopropane]-2-yl)-N-imidazo[1,2-c]pyrimidin-5-ylacetamide]",6.58 µM
14,"O=C(CN1CC2(CC2)c2cc(Br)ccc2C1=O)Nc1ncc(N2CCCC2)cn1 [Example 364, 2-(6-bromo-1-oxospiro[3H-isoquinoline-4,1′-cyclopropane]-2-yl)-N-(5-pyrrolidin-1-ylpyrimidin-2-yl)acetamide]",2.56 µM
15,"O=C(CN1CC2(CC2)c2cc(Br)ccc2C1=O)N[C@@H]1CCCN(C2COC2)C1 [Example 365, 2-(6-bromo-1-oxospiro[3H-isoquinoline-4,1′-cyclopropane]-2-yl)-N-[(3R)-1-(oxetan-3-yl)piperidin-3-yl]acetamide]",2.14 µM
16,"O=C(CN1CC2(CC2)c2cc(Br)ccc2C1=O)NC1CCN(CCC(F)(F)F)CC1 [Example 366, 2-(6-bromo-1-oxospiro[3H-isoquinoline-4,1′-cyclopropane]-2-yl)-N-[1-(3,3,3-trifluoropropyl)piperidin-4-yl]acetamide]",19 µM
17,"O=C(CN1CC2(CC2)c2cc(Br)ccc2C1=O)NC1CCN(CC(F)F)CC1 [Example 367, 2-(6-bromo-1-oxospiro[3H-isoquinoline-4,1′-cyclopropane]-2-yl)-N-[1-(2,2-difluoroethyl)piperidin-4-yl]acetamide]",11.7 µM
18,"Cc1cc(NC(=O)CN2CC3(CC3)c3cc(Br)ccc3C2=O)nc2ccnn12 [Example 368, 2-(6-bromo-1-oxospiro[3H-isoquinoline-4,1′-cyclopropane]-2-yl)-N-(7-methylpyrazolo[1,5-a]pyrimidin-5-yl)acetamide]",1.6 µM

row,SMILES,IC50
1,"O=C(CN1CC2(CC2)c2cc(Br)ccc2C1=O)NC1CCN(c2cccnc2)CC1 [Example 369, 2-(6-bromo-1-oxospiro[3H-isoquinoline-4,1′-cyclopropane]-2-yl)-N-(1-pyridin-3-ylpiperidin-4-yl)acetamide]",6.51 µM
2,"CN1CCC(NC(=O)CN2CC3(CC3)c3cc(Br)ccc3C2=O)CC12CC2 (stereo not drawn) [Example 370, 2-(6-bromo-1-oxospiro[3H-isoquinoline-4,1′-cyclopropane]-2-yl)-N-(4-methyl-4-azaspiro[2.5]octan-7-yl)acetamide]",5.97 µM
3,"Cn1cnc(NC(=O)CN2CC3(CC3)c3cc(Br)ccc3C2=O)n1 [Example 371, 2-(6-bromo-1-oxospiro[3H-isoquinoline-4,1′-cyclopropane]-2-yl)-N-(1-methyl-1,2,4-triazol-3-yl)acetamide]",1.46 µM
4,"O=C(CN1CC2(CC2)c2cc(Br)ccc2C1=O)Nc1nc2n(n1)CCCC2 [Example 373, 2-(6-bromo-1-oxospiro[3H-isoquinoline-4,1′-cyclopropane]-2-yl)-N-(5,6,7,8-tetrahydro-[1,2,4]triazolo[1,5-a]pyridin-2-yl)acetamide]",1.59 µM
5,"O=C(CN1CC2(CC2)c2cc(Br)ccc2C1=O)Nc1ccn2ccnc2n1 [Example 374, 2-(6-bromo-1-oxospiro[3H-isoquinoline-4,1′-cyclopropane]-2-yl)-N-imidazo[1,2-a]pyrimidin-7-ylacetamide]",9.45 µM
6,"O=C(CN1CC2(CC2)c2cc(Br)ccc2C1=O)NC1CCN(CC(F)(F)F)CC1 [Example 375, 2-(6-bromo-1-oxospiro[3H-isoquinoline-4,1′-cyclopropane]-2-yl)-N-[1-(2,2,2-trifluoroethyl)piperidin-4-yl]acetamide]",11.1 µM
7,"Cc1nc(NC(=O)CN2CC3(CC3)c3cc(Br)ccc3C2=O)nn1C [Example 376, 2-(6-bromo-1-oxospiro[3H-isoquinoline-4,1′-cyclopropane]-2-yl)-N-(1,5-dimethyl-1,2,4-triazol-3-yl)acetamide]",1.83 µM
8,"O=C(CN1CC2(CC2)c2cc(Br)ccc2C1=O)Nc1noc2ccccc12 [Example 377, N-(1,2-benzoxazol-3-yl)-2-(6-bromo-1-oxospiro[3H-isoquinoline-4,1′-cyclopropane]-2-yl)acetamide]",2.25 µM
9,"CCOC(=O)N1CCC(NC(=O)CN2CC3(CC3)c3cc(Br)ccc3C2=O)CC1 [Example 378, ethyl 4-[[2-(6-bromo-1-oxospiro[3H-isoquinoline-4,1′-cyclopropane]-2-yl)acetyl]amino]piperidine-1-carboxylate]",4.98 µM
10,"O=C(CN1CC2(CC2)c2cc(Br)ccc2C1=O)NC1CCN(c2ccccn2)CC1 [Example 379, 2-(6-bromo-1-oxospiro[3H-isoquinoline-4,1′-cyclopropane]-2-yl)-N-(1-pyridin-2-ylpiperidin-4-yl)acetamide]",8.92 µM
11,"O=C(CN1CC2(CC2)c2cc(Br)ccc2C1=O)NC1CCN(c2ncccn2)CC1 [Example 380, 2-(6-bromo-1-oxospiro[3H-isoquinoline-4,1′-cyclopropane]-2-yl)-N-(1-pyrimidin-2-ylpiperidin-4-yl)acetamide]",11.4 µM
12,"O=C(CN1CC2(CC2)c2cc(Br)ccc2C1=O)N[C@@H]1CCN(C2COC2)C1 [Example 381, 2-(6-bromo-1-oxospiro[3H-isoquinoline-4,1′-cyclopropane]-2-yl)-N-[(3R)-1-(oxetan-3-yl)pyrrolidin-3-yl]acetamide]",12.1 µM
13,"COCC1CC(NC(=O)CN2CC3(CC3)c3cc(Br)ccc3C2=O)C1 (stereo not drawn) [Example 382, 2-(6-bromo-1-oxospiro[3H-isoquinoline-4,1′-cyclopropane]-2-yl)-N-[3-(methoxymethyl)cyclobutyl]acetamide]",8.79 µM
14,O=C(CN1CC2(CC2)c2cc(Br)ccc2C1=O)Nc1cc2ccccn2n1 [Example 383],1.23 µM
15,"CCN1CC[C@@H](NC(=O)CN2CC3(CC3)c3cc(Br)ccc3C2=O)C1 [Example 384, 2-(6-bromo-1-oxospiro[3H-isoquinoline-4,1′-cyclopropane]-2-yl)-N-[(3R)-1-ethylpyrrolidin-3-yl]acetamide]",11.6 µM
16,O=C(CN1CC2(CC2)c2cc(Br)ccc2C1=O)Nc1cn2ccccc2n1 [Example 385],1.82 µM
17,"O=C(CN1CC2(CC2)c2cc(Br)ccc2C1=O)Nc1nc2c(o1)CCCC2 [Example 386, 2-(6-bromo-1-oxospiro[3H-isoquinoline-4,1′-cyclopropane]-2-yl)-N-(4,5,6,7-tetrahydro-1,3-benzoxazol-2-yl)acetamide]",1.45 µM

# From US20230416205A1, “COMPOUNDS, COMPOSITIONS, AND METHODS” (Denali Therapeutics Inc, priority 2020, published 2023)
